Common to all, as to type: cell-based
Data set [1] has as its target T1, Proteasome subunit beta type-8 (Homo sapiens, UniProt P28062).
T1 sequence (P28062 whole entry): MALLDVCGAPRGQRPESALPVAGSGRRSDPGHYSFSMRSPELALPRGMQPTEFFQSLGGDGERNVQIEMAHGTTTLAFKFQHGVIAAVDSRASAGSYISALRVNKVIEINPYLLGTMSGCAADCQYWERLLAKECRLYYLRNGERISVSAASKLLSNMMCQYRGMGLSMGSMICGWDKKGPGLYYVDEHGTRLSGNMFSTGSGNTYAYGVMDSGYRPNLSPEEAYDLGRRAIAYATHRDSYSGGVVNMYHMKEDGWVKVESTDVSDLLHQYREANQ
Description: Inhibition of 20s immunoproteasome LMP7 in human erythrocytes using Suc-Leu-Leu-ValTyr-MCA as substrate preincubated for 10 mins followed by substrate addition and measured after 6 hrs by fluorescence assay.

For data set [2], the target named is T2, Proteasome subunit beta type-10 (Homo sapiens) (UniProt P40306).
T2 sequence (whole entry): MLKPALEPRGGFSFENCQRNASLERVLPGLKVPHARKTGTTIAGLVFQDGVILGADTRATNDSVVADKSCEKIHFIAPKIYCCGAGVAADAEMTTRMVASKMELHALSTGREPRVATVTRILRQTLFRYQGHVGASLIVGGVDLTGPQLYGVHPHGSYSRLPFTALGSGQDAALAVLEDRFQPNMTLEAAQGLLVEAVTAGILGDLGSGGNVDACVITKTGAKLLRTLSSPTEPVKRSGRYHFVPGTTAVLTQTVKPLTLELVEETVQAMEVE
Description: Inhibition of 20s immunoproteasome MECL1 in human erythrocytes at 15 uM using Suc-Leu-Leu-ValTyr-MCA as substrate preincubated for 10 mins followed by substrate addition and measured after 6 hrs by fluorescence assay.

For data set [3], the target named is T3, Proteasome subunit beta type-9 (Homo sapiens, UniProt P28065).
T3 sequence (P28065 whole entry): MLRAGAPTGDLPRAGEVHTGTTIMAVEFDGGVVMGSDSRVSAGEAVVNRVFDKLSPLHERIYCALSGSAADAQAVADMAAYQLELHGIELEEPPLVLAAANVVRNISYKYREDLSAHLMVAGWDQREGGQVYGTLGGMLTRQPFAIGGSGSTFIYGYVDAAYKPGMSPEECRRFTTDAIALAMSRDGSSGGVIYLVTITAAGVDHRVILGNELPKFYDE
As to the kind of experiment: Inhibition of 20s immunoproteasome LMP2 in human erythrocytes using Ac-Pro-Ala-Leu-MCA as substrate preincubated for 10 mins followed by substrate addition and measured after 6 hrs by fluorescence assay.

Data set [4] has as its system HeLa. Description: Cytotoxicity against human HeLa cells at 50 uM after 3 days by MTT assay. As to conditions: 72 h.
Data set [5] deals with T4, Proteasome Macropain subunit MB1 (Homo sapiens, UniProt P28074).
T4 sequence (P28074 whole entry): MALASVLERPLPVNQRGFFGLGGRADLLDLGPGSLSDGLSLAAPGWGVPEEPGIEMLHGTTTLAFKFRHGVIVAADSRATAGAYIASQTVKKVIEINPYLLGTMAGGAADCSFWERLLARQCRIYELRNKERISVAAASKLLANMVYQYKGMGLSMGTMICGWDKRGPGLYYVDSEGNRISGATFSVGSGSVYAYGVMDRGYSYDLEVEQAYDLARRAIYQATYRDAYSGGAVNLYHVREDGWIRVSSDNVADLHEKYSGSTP
As to the kind of experiment: Inhibition of 20s constitutive proteasome beta5 chymotrypsin-like activity in human erythrocytes using Suc-Leu-Leu-ValTyr-MCA as substrate preincubated for 10 mins followed by substrate addition and measured after 6 hrs by fluorescence assay.

Data set [6] deals with T5, Proteasome subunit beta type-10 (Homo sapiens, UniProt P40306).
T5 sequence (P40306 whole entry): T2 sequence (whole entry)
As to the kind of experiment: Inhibition of 20s immunoproteasome MECL1 in human erythrocytes using Suc-Leu-Leu-ValTyr-MCA as substrate preincubated for 10 mins followed by substrate addition and measured after 6 hrs by fluorescence assay.

Data set [7] relates to HeLa. As to the kind of experiment: Cytotoxicity against human HeLa cells after 3 days by MTT assay. The following applies: 72 h.

Calls of active or inactive are those of the source. The calls are words filed in the database; no cut-off is given here.

Regarding `C1=C\CCc2cc3c[n+](c2)CCCC/C=C\CC[C@@H]2CN(CCCC/1)CC[C@@H]32`, the IC50 in data set [1] worked out at 4.1 µM; in data set [3] it was 3.1 µM; in data set [5] it was 1.8 µM. Besides, the inhibition entry in data set [2] is “inactive”. Further, the Activity entry in the data set with HeLa [4] was “Non-Toxic”.

With `C1=C2CN3CCCC/C=C\CC[C@@H]4CN(CCCC/C=C\CC[C@H]1C3)CC[C@@H]24`, the 50% inhibitory concentration (IC50) was 0.63 µM in data set [1]; 0.44 µM in data set [3]; 8 µM in data set [6]; 12 µM in the data set on HeLa [7]; 0.42 µM in data set [5].

The values are drawn from ChEMBL document CHEMBL4308881, “Tetradehydrohalicyclamine B, a new proteasome inhibitor from the marine sponge Acanthostrongylophora ingens” (Bioorg Med Chem Lett, 2019).
